Test results from ChEMBL document CHEMBL1201862, “PubChem BioAssay data set” (2004).
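Growth conditions: 96-well plates. Treatment: test compound, 48 hours, 5 concentrations. Analysis: linear interpolation between bracketing concentrations; unreached endpoints set to highest concentration. At the GI50, growth is halved.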 Active and inactive are the calls of the source. Rule as the data show it: active = GI50 up to about 1.1 µM and inactive = higher.

Columns and labels:
Assay in all cases: growth of human tumour cells (NCI), 48 h
786-0 = system: 786-0
A549 = system: A549
ACHN = system: ACHN
BT-549 = system: BT-549
CAKI-1 = system: CAKI-1
CCRF-CEM = system: CCRF-CEM
COLO 205 = system: COLO 205
DU-145 = system: DU-145
EKVX = system: EKVX
HCC 2998 = system: HCC 2998
HCT-116 = system: HCT-116
HCT-15 = system: HCT-15
HL-60 = system: HL-60
HOP-62 = system: HOP-62
HOP-92 = system: HOP-92
HT-29 = system: HT-29
Hs-578T = system: Hs-578T
IGROV-1 = system: IGROV-1
K562 = system: K562
KM12 = system: KM12
LOX IMVI = system: LOX IMVI
M14 = system: M14
MCF7 = system: MCF7
MDA-MB-231 = system: MDA-MB-231
MDA-MB-435 = system: MDA-MB-435
MDA-N = system: MDA-N
MOLT-4 = system: MOLT-4
NCI-H226 = system: NCI-H226
NCI-H23 = system: NCI-H23
NCI-H460 = system: NCI-H460
NCI-H522 = system: NCI-H522
NCI/ADR-RES = system: NCI/ADR-RES
OVCAR-3 = system: OVCAR-3
OVCAR-4 = system: OVCAR-4
OVCAR-5 = system: OVCAR-5
OVCAR-8 = system: OVCAR-8
PC-3 = system: PC-3
RPMI-8226 = system: RPMI-8226
RXF 393 = system: RXF 393
SF-268 = system: SF-268
SF-295 = system: SF-295
SF-539 = system: SF-539
SK-MEL-28 = system: SK-MEL-28
SK-MEL-2 = system: SK-MEL-2
SK-MEL-5 = system: SK-MEL-5
SK-OV-3 = system: SK-OV-3
SN12C = system: SN12C
SNB-19 = system: SNB-19
SNB-75 = system: SNB-75
SW-620 = system: SW-620
T47D = system: T47D
TK-10 = system: TK-10
U-251 = system: U-251
UACC-257 = system: UACC-257
UACC-62 = system: UACC-62
UO-31 = system: UO-31
Malme-3M = system: Malme-3M
SR = system: SR

Nc1nc(Cl)c(N)c(NCC2(CO)CC(Cc3ccccc3)C2)n1 (stereo not given)
GI50 (786-0): > 91.4 µM (inactive)
GI50 (A549): > 75 µM (inactive)
GI50 (ACHN): 97.9 µM (inactive)
GI50 (BT-549): 42.5 µM (inactive)
GI50 (CAKI-1): > 100 µM (inactive)
GI50 (CCRF-CEM): 23.1 µM (inactive)
GI50 (COLO 205): 34.9 µM (inactive)
GI50 (DU-145): > 100 µM (inactive)
GI50 (EKVX): 3.2 µM (inactive)
GI50 (HCC 2998): > 93.5 µM (inactive)
GI50 (HCT-116): 3.15 µM (inactive)
GI50 (HCT-15): > 79.3 µM
GI50 (HL-60): 4.8 µM (inactive)
GI50 (HOP-62): > 49.3 µM (inactive)
GI50 (HOP-92): > 77.3 µM (inactive)
GI50 (HT-29): 70.6 µM (inactive)
GI50 (Hs-578T): > 39.8 µM (inactive)
GI50 (IGROV-1): > 78.5 µM (inactive)
GI50 (K562): 0.218 µM (active)
GI50 (KM12): 35.7 µM (inactive)
GI50 (LOX IMVI): 2.42 µM (inactive)
GI50 (M14): 55.2 µM (inactive)
GI50 (MCF7): 7.87 µM (inactive)
GI50 (MDA-MB-231): 61.4 µM (inactive)
GI50 (MDA-MB-435): 16.6 µM (inactive)
GI50 (MDA-N): 33.3 µM (inactive)
GI50 (MOLT-4): 16.3 µM (inactive)
GI50 (NCI-H226): > 31.8 µM (inactive)
GI50 (NCI-H23): 0.865 µM (active)
GI50 (NCI-H460): > 55.5 µM (inactive)
GI50 (NCI-H522): 28.5 µM (inactive)
GI50 (NCI/ADR-RES): 15.1 µM (inactive)
GI50 (OVCAR-3): 26.3 µM (inactive)
GI50 (OVCAR-4): 48.1 µM (inactive)
GI50 (OVCAR-5): > 100 µM (inactive)
GI50 (OVCAR-8): 56.9 µM (inactive)
GI50 (PC-3): 51.3 µM (inactive)
GI50 (RPMI-8226): 2.41 µM (inactive)
GI50 (RXF 393): > 42.6 µM (inactive)
GI50 (SF-268): > 92.9 µM (inactive)
GI50 (SF-295): > 100 µM (inactive)
GI50 (SF-539): > 100 µM (inactive)
GI50 (SK-MEL-28): > 100 µM (inactive)
GI50 (SK-MEL-2): 52.6 µM (inactive)
GI50 (SK-MEL-5): 0.0766 µM (active)
GI50 (SK-OV-3): > 100 µM (inactive)
GI50 (SN12C): > 100 µM (inactive)
GI50 (SNB-19): > 66.4 µM (inactive)
GI50 (SNB-75): > 85.3 µM (inactive)
GI50 (SW-620): > 72.8 µM (inactive)
GI50 (T47D): 0.923 µM (active)
GI50 (TK-10): > 100 µM (inactive)
GI50 (U-251): 14.6 µM (inactive)
GI50 (UACC-257): 0.127 µM (active)
GI50 (UACC-62): > 76.9 µM (inactive)
GI50 (UO-31): > 100 µM (inactive)

CC(C)[Si](OC1=CCC[C@H]2NC(=O)[C@@H](Cc3ccc([N+](=O)[O-])cc3)[C@@]12C)(C(C)C)C(C)C
GI50 (786-0): 5.11 µM (inactive)
GI50 (A549): 1.85 µM (inactive)
GI50 (ACHN): 1.49 µM (inactive)
GI50 (BT-549): 3.76 µM (inactive)
GI50 (CAKI-1): 13.2 µM (inactive)
GI50 (CCRF-CEM): 2.86 µM (inactive)
GI50 (COLO 205): 3.98 µM (inactive)
GI50 (DU-145): 9.46 µM (inactive)
GI50 (EKVX): 6.37 µM (inactive)
GI50 (HCC 2998): 1.95 µM (inactive)
GI50 (HCT-116): 3.68 µM (inactive)
GI50 (HCT-15): 4.25 µM
GI50 (HL-60): 3.44 µM (inactive)
GI50 (HOP-62): 4.3 µM (inactive)
GI50 (HT-29): 2.12 µM (inactive)
GI50 (Hs-578T): 7.31 µM (inactive)
GI50 (IGROV-1): 11.3 µM (inactive)
GI50 (K562): 3.06 µM (inactive)
GI50 (KM12): 3.73 µM (inactive)
GI50 (LOX IMVI): 4.9 µM (inactive)
GI50 (M14): 12.5 µM (inactive)
GI50 (MCF7): 3.73 µM (inactive)
GI50 (MDA-MB-231): 6.5 µM (inactive)
GI50 (MDA-N): 4.98 µM (inactive)
GI50 (MOLT-4): 3.72 µM (inactive)
GI50 (Malme-3M): 16.6 µM (inactive)
GI50 (NCI-H23): 5.53 µM (inactive)
GI50 (NCI-H460): 3.35 µM (inactive)
GI50 (NCI-H522): 4.95 µM (inactive)
GI50 (NCI/ADR-RES): 11.7 µM (inactive)
GI50 (OVCAR-3): 4.34 µM (inactive)
GI50 (OVCAR-4): 4.47 µM (inactive)
GI50 (OVCAR-5): 8.65 µM (inactive)
GI50 (OVCAR-8): 11.6 µM (inactive)
GI50 (PC-3): 3.4 µM (inactive)
GI50 (RXF 393): 2.15 µM (inactive)
GI50 (SF-268): 7.52 µM (inactive)
GI50 (SF-295): 4.59 µM (inactive)
GI50 (SF-539): 2.42 µM (inactive)
GI50 (SK-MEL-2): 12.8 µM (inactive)
GI50 (SK-MEL-5): 2.3 µM (inactive)
GI50 (SK-OV-3): 10.1 µM (inactive)
GI50 (SN12C): 2.02 µM (inactive)
GI50 (SNB-19): 12.5 µM (inactive)
GI50 (SNB-75): 10.4 µM (inactive)
GI50 (SR): 2.79 µM (inactive)
GI50 (T47D): 4.73 µM (inactive)
GI50 (TK-10): 11 µM (inactive)
GI50 (UACC-257): 5.47 µM (inactive)
GI50 (UACC-62): 14.2 µM (inactive)
GI50 (UO-31): 13.4 µM (inactive)

CC12CCC(C(=O)OC1=O)C(C)(C)O2 (stereo not given)
GI50 (A549): > 100 µM (inactive)
GI50 (ACHN): > 100 µM (inactive)
GI50 (BT-549): > 100 µM (inactive)
GI50 (CAKI-1): > 100 µM (inactive)
GI50 (CCRF-CEM): > 100 µM (inactive)
GI50 (COLO 205): > 100 µM (inactive)
GI50 (DU-145): > 100 µM (inactive)
GI50 (EKVX): > 100 µM (inactive)
GI50 (HCC 2998): > 100 µM (inactive)
GI50 (HCT-116): > 100 µM (inactive)
GI50 (HOP-62): > 100 µM (inactive)
GI50 (HOP-92): > 100 µM (inactive)
GI50 (HT-29): > 100 µM (inactive)
GI50 (Hs-578T): > 100 µM (inactive)
GI50 (IGROV-1): > 100 µM (inactive)
GI50 (K562): > 100 µM (inactive)
GI50 (KM12): > 100 µM (inactive)
GI50 (LOX IMVI): > 100 µM (inactive)
GI50 (M14): > 100 µM (inactive)
GI50 (MCF7): > 100 µM (inactive)
GI50 (MDA-MB-435): > 100 µM (inactive)
GI50 (MDA-N): > 100 µM (inactive)
GI50 (MOLT-4): > 100 µM (inactive)
GI50 (Malme-3M): > 100 µM (inactive)
GI50 (NCI-H226): > 100 µM (inactive)
GI50 (NCI-H23): > 100 µM (inactive)
GI50 (NCI-H460): > 100 µM (inactive)
GI50 (NCI-H522): > 100 µM (inactive)
GI50 (NCI/ADR-RES): > 100 µM (inactive)
GI50 (OVCAR-3): > 100 µM (inactive)
GI50 (OVCAR-4): > 100 µM (inactive)
GI50 (OVCAR-5): > 100 µM (inactive)
GI50 (OVCAR-8): > 100 µM (inactive)
GI50 (PC-3): > 100 µM (inactive)
GI50 (RPMI-8226): > 100 µM (inactive)
GI50 (RXF 393): > 100 µM (inactive)
GI50 (SF-268): > 100 µM (inactive)
GI50 (SF-295): > 100 µM (inactive)
GI50 (SF-539): > 100 µM (inactive)
GI50 (SK-MEL-28): > 100 µM (inactive)
GI50 (SK-MEL-2): > 100 µM (inactive)
GI50 (SK-MEL-5): > 100 µM (inactive)
GI50 (SK-OV-3): > 100 µM (inactive)
GI50 (SN12C): > 100 µM (inactive)
GI50 (SNB-19): > 100 µM (inactive)
GI50 (SNB-75): > 100 µM (inactive)
GI50 (SW-620): > 100 µM (inactive)
GI50 (T47D): > 100 µM (inactive)
GI50 (TK-10): > 100 µM (inactive)
GI50 (U-251): > 100 µM (inactive)
GI50 (UACC-257): > 100 µM (inactive)
GI50 (UACC-62): > 100 µM (inactive)
GI50 (UO-31): > 100 µM (inactive)
